Earlier results, collected in US20250319089A1, “STABLE LYOPHILISATES COMPRISING 5,10-METHYLENE-(6R)-TETRAHYDROFOLIC ACID” (Merck Patent GMBH, priority 2022, published 2025).

- purity after 24 hours compared to the starting purity (24 hours following dissolution in water): 44.9%
- purity after 7 hours (re-constituted lyophilizate, 7 hours): 84%
- loss of purity per hour (degradation rate) (re-constituted lyophilizate, linear regression): 2.3 % purity per hour
SMILES: Nc1nc2c(c(=O)[nH]1)N1CN(c3ccc(C(=O)N[C@@H](CCC(=O)O)C(=O)O)cc3)C[C@H]1CN2 [5,10-methylene-(6R,S)-tetrahydrofolic acid]
